# Assay results as given in patent publication US5681838A, “Substituted amino compounds, their preparation and their use as inhibitors of thrombocyte-aggregation” (Hoechst Aktiengesellschaft, priority 1993, dated 1997).
# Like-named read-outs stand apart in the source and are kept apart here.
# How the values were obtained:
# [1] = system: gel-filtered human blood platelets; assay: inhibition of aggregation of gel-filtered human blood platelets following stimulation with ADP or thrombin; format: cell-based; conditions: Platelet
# Protocol: (§1) The compounds are tested, in particular, for their ability to inhibit blood-platelet aggregation and the adherence of fibrinogen to blood platelets (gel-filtered blood platelets from human donor blood are used which are activated with ADP or thrombin), as well as for their in-vivo ability to inhibit blood-platelet aggregation and thrombosis.
# As a functional test, the ability is measured of the compounds according to the invention to inhibit the aggregation of gel-filtered human blood platelets following stimulation with ADP or thrombin. The value given is the IC50 value of the inhibition. (Literature: G. A. Marguerie et al., J. Biol. Chem. 254 (1979), 5357-5363).
# [2] = target: T1, fibrinogen receptor (glycoprotein IIb/IIIa) (Homo sapiens, UniProt P05106+P08514); assay: inhibition of binding of 125I-fibrinogen to its receptor on intact, gel-filtered human blood platelets; conditions: following stimulation with ADP (10 μM); read-out: Ki, ADP-stimulated (inhibition of the binding of 125I-fibrinogen)
# T1 construct: on intact, gel-filtered human blood platelets; from tissue; host or cells: gel-filtered blood platelets from human donor blood
# Protocol: as §1
# The test is of the ability of the compounds according to the invention to inhibit the binding of fibrinogen to its receptor (glycoprotein IIb/IIIa) on intact, gel-filtered human blood platelets. The value given is the Ki value for inhibition of the binding of ^125 I-fibrinogen following stimulation with ADP (10 μM). (Literature: J. S. Bennett and G. Vilaire, J. Clin. Invest. 64 (1979), 1393-1401; E. Kornecki et al., J. Biol. Chem. 256 (1981), 5695-5701; G. A. Marguerie et al., J. Biol. Chem. 254 (1979), 5357-5363; G. A. Marguerie et al., J. Biol. Chem. 255 (1980), 154-161).
# [3] = read-out: ADP-stimulated IC50 (inhibition of platelet aggregation)
# [4] = read-out: Thrombin-stimulated IC50 (inhibition of platelet aggregation)
# T1 sequence (P08514 32-887 limits assumed): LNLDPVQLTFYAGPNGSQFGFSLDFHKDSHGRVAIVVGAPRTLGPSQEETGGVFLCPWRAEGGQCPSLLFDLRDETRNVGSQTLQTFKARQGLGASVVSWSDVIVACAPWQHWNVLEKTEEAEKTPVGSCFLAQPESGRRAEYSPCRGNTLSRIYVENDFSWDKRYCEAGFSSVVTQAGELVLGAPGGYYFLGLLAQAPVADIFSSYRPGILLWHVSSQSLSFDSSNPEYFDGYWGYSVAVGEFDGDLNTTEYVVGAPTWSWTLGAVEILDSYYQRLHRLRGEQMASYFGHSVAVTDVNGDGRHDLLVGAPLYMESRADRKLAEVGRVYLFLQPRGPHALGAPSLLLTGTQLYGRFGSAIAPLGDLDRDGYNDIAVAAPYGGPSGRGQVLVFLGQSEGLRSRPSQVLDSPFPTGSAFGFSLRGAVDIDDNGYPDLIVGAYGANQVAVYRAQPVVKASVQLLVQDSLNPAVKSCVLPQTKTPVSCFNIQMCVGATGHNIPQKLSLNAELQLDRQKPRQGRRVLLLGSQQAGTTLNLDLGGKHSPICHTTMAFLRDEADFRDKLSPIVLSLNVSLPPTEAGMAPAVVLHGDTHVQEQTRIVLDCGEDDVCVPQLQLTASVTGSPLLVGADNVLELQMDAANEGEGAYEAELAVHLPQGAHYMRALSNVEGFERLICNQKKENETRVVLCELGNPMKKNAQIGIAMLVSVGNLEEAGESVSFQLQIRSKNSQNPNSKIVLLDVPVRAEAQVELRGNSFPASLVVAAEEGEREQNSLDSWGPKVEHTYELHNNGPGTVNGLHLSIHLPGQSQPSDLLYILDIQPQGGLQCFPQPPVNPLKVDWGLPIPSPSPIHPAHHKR
# T1 sequence (P08514 891-1039 limits assumed): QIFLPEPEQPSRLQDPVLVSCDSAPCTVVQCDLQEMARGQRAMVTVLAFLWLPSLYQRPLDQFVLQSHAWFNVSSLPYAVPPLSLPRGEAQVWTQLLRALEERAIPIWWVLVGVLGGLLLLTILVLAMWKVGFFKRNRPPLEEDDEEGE
# T1 sequence (P05106 27-788): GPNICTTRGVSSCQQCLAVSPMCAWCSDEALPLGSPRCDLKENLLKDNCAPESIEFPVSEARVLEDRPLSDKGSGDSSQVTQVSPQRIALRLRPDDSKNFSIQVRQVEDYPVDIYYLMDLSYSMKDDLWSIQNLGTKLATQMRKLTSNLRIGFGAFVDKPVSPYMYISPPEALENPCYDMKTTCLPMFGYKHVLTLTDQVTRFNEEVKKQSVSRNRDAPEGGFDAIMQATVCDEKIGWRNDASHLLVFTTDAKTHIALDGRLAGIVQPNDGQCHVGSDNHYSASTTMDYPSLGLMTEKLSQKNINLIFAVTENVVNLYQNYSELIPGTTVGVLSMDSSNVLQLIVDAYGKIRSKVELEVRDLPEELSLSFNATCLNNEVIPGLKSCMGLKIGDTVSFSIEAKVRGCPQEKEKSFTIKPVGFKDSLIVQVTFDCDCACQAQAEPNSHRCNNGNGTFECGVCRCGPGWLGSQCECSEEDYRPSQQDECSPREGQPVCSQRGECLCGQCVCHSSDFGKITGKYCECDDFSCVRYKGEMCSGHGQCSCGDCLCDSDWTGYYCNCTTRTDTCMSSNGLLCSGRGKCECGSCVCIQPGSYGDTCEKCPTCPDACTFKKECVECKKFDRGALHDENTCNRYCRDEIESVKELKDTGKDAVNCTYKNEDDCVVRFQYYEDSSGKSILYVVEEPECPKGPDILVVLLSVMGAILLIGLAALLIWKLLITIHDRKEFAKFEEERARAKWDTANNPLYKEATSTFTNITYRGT
"IC50 [1, 3]","IC50 [1, 4]",Ki [2],SMILES
20000 nM,20000 nM,,"N=C(N)c1ccc(CC2NC(=O)N(CCN(CC(=O)O)C(=O)OCC3c4ccccc4-c4ccccc43)C2=O)cc1 (centres unmarked) [Example 2, (2-(4-(4-(Aminoiminomethyl)benzyl)-2,5-dioxoimidazolidin-1-yl)ethyl)-(9-fluorenylmethoxycarbonyl)aminoacetic acid]"
1500 nM,1000 nM,420 nM,"N=C(N)c1ccc(C=CC(=O)NCCCN(CC(=O)O)C(=O)NC(C(=O)O)c2ccccc2)cc1 (centres unmarked) [Example 1, (1-(3-(3-(4-(Aminoiminomethyl)phenyl)acryloylamino)propyl)-3-(hydroxycarbonylphenylmethyl)ureido)acetic acid acetate]"
